US20110287432A1, “SYSTEM AND METHOD FOR TAILORING NUCLEOTIDE CONCENTRATION TO ENZYMATIC EFFICIENCIES IN DNA SEQUENCING TECHNOLOGIES” (454 Life Science Corporation, priority 2010, published 2011)

What was measured:
apyrase = assay: Enzyme kinetics of apyrase across multiple nucleotides (Michaelis-Menten); type: biochemical; details: for Km: Michaelis constant of apyrase for the nucleotide species; for VApy-dNTP (estimated apyrase activity): Michaelis-Menten calculation, dTTP, α-thio-dATP, dCTP, dGTP at 40.3, 166.1, 16.3, 19.7 μM; for Vmax: maximum rate of apyrase for the nucleotide species; for Apyrase activity ratio: normalized to the value of dCTP
From the text: The nucleotide species specific steady-state apyrase concentration may be computed using what is referred to as the Michaelis-Menten kinetics to mathematically approximate the kinetic characteristics of an enzyme based upon the assumption that simple kinetic conditions exist. The Michaelis-Menten equation uses constant values that vary by nucleotide species and include the Michaelis constant KM and the maximum rate Vmax of enzyme activity in a reaction environment.
In the present example, apyrase is effectively exposed to only one type of nucleotide species at a given time due to the iterative nature of the sequencing reagent flows. The reaction rates between apyrase and each nucleotide species can be estimated using the following formula: […]
where [dNTP] is the concentration of dTTP, dATP, dCTP or dGTP.
Continuing with the present example, the nucleotide species concentrations used for the computation for dTTP, α-thio-dATP, dCTP and dGTP are 40.3, 166.1, 16.3 and 19.7 μM respectively in the reaction environment. It will be appreciated that the concentration value for α-thio-dATP is substantially higher than the concentrations of the other nucleotide species which is due to the modification that has an inhibitory effect upon the incorporation efficiency of a polymerase enzyme (i.e. thus a higher concentration improves the likelihood of polymerase incorporation) as well as an increased processing efficiency of the apyrase as illustrated in greater detail below. In some embodiments the more “natural” dATP species may be used in place of α-thio-dATP and may have a different value for nucleotide species concentration reflecting the higher efficiency of enzyme processing for that species. The estimated activities of apyrase from the Michaelis-Menten calculation towards the different nucleotide species are shown in the Table 2 below. It should again be noted that the calculated efficiency of apyrase to α-thio-dATP illustrated in Table 2 is substantially higher than for the other species and thus apyrase would be expected to process a higher concentration of α-thio-dATP in an efficient manner.

polymerase and apyrase = assay: Sequencing of C. jejuni shotgun libraries, nucleotide-specific CAFIE fit of raw reads; type: biochemical; details: average over 200 reads
From the text: In the present example, DNA Shotgun libraries of the genome C. jejuni were sequenced to calculate the nucleotide species concentrations optimized for polymerase and apyrase efficiencies. The second (TA) and the third (CG) columns of Table 4 show the relative percentage of T and A to C and G nucleotide species concentrations used in sequencing runs where a value for the 100% concentration may be based upon the calculated and normalized species relative ratio values from Table 3. For instance, using the figures from Table 3 100% of the G nucleotide species is 1.2 times greater the 100% of the C nucleotide species given the concentration ratio. Those of ordinary skill in the art will appreciate that C. jejuni is an AT rich genome generally meaning that there is a higher incidence of A and T nucleotide species in the genome composition than C and G nucleotide species. Thus, the relative percentages for TA and GC concentrations illustrated in FIG. 4 reflect that fact and typically would be different for a GC rich genome (i.e. the genome of T. thermophilus).
The average completion efficiency (i.e. to estimate incomplete extension) and carry forward values of each individual nucleotide species were inferred using a method described in detail below. The last column presents the average read lengths (RL) of the high quality reads obtained where increased read length correlates to an increased level of optimization of the combination of each nucleotide species concentration that is balanced for the species specific incorporation efficiency of polymerase to degradation efficiency of apyrase.
The average completion efficiencies and carry forward values of the individual nucleotide species were inferred using nucleotide-specific CAFIE (carry forward and incompletion extension) fit. For example, the sequencing process produces raw sequence reads typically processed by an embodiment of Image and Signal Processing software such as application 135. In the present example, application 135 maps (also referred to as an alignment by those of ordinary skill in the art) the raw sequence reads generated to a reference genome sequence associated with the samples sequenced, such as a consensus reference sequence of C. jejuni. As will be evident to those of ordinary skill, mapping/aligning the raw uncorrected sequence reads to a reference sequence can be employed to determine where CAFIE error occurs and determination of incidence of nucleotide species specific CAFIE error.
In the presently described example application 135 mapped 200 uncorrected sequence reads, represented as flowgrams, to the reference genome sequence and the first 100 iterations of the nucleotide flows considered for determination of optimal concentration of each of the nucleotide species by inferring the completion efficiencies and carry forward values. The detected signal strengths of each of the four nucleotide species were first normalized using the median 1-mer value for all nucleotide species. The term “1-mer value” as used herein generally refers to a value reflecting the degree of detected signal in response to an incorporation of a nucleotide species at a single sequence position which should be substantially the same for each of the nucleotide species. Typically this the 1-mer value is easiest to calculate from detected signals obtained at the beginning of a sequencing run of a template nucleic acid molecule because the key element in an adaptor includes a single representative of each nucleotide species in a key element at a known position (i.e. a TCAG key element) and thus it is expected that only a single nucleotide of each species is incorporated at each of the four sequence positions.
The completion efficiency and carry forward values illustrated in Table 4 can be inferred using a three-stage minimization process for each individual sequence read. […]

[1] = Run 1, relative concentration TA 120%, CG 140%
[2] = Run 2, relative concentration TA 140%, CG 140%
[3] = Run 3, relative concentration TA 120%, CG 160%

Row | SMILES | Km (apyrase) [µM] | VApy-dNTP (estimated apyrase activity) (apyrase) [μM/10 min] | Vmax (apyrase) [μM/10 min] | Apyrase activity ratio (apyrase) | average carry forward (polymerase and apyrase; [1]) | average completion efficiency (polymerase and apyrase; [1]) | average carry forward (polymerase and apyrase; [2]) | average completion efficiency (polymerase and apyrase; [2]) | average carry forward (polymerase and apyrase; [3]) | average completion efficiency (polymerase and apyrase; [3])
1 | Nc1ccn([C@H]2C[C@H](O)[C@@H](COP(=O)(O)OP(=O)(O)OP(=O)(O)O)O2)c(=O)n1 [dCTP] | 76.5 | 31.7 | 250.0 | 1.0 | 0.0062 | 0.9988 | 0.0058 | 0.9986 | 0.0065 | 0.9991
2 | Nc1nc2c(ncn2[C@H]2C[C@H](O)[C@@H](COP(=O)(O)OP(=O)(O)OP(=O)(O)O)O2)c(=O)[nH]1 [dGTP] | 8.1 | 51.2 | 47.4 | 1.6 | 0.0048 | 0.9990 | 0.0075 | 0.9992 | 0.0057 | 0.9994
3 | Cc1cn([C@H]2C[C@H](O)[C@@H](COP(=O)(O)OP(=O)(O)OP(=O)(O)O)O2)c(=O)[nH]c1=O [dTTP] | 107 | 80.4 | 294.1 | 2.5 | 0.0006 | 0.9968 | 0.0013 | 0.9975 | 0.0008 | 0.9959
4 | Nc1ncnc2c1ncn2[C@H]1C[C@H](O)[C@@H](COP(O)(=S)OP(=O)(O)OP(=O)(O)O)O1 (stereo partly drawn) [α-thio-dATP] | 115 | 137.5 | 232.6 | 4.3 | 0.0035 | 0.9977 | 0.0033 | 0.9971 | 0.0043 | 0.9978
